Data: ChEMBL document CHEMBL1144109, “Structures and cytotoxicity relationship of isoaaptamine and aaptamine derivatives” (J Nat Prod, 1999)
Converted amounts (≈) assume the structure as drawn.

Tests used:
Type in all cases: functional, cell-based
A549 = assay: Cytotoxicity against human A549 cells after 6 days by MTT assay; details: A549, 144 h
P388 = assay: Cytotoxicity against mouse P388 cells after 3 days by MTT assay; details: P388, 72 h
[1] = Cytotoxicity against human KB16 cells after 3 days by MTT assay; details: KB16, 72 h
HT-29 = assay: Cytotoxicity against human HT-29 cells after 6 days by MTT assay; details: HT-29, 144 h

**Q.** Which results are given for CCCCCCCCCCCC(=O)N1CCc2cc(OC)c(OC)c3nccc1c23?
**A.** IC50 (A549): 5.6 µg/mL (≈ 13.6 µM); IC50 (P388): 0.1 µg/mL (≈ 0.242 µM); IC50 [1]: 7.8 µg/mL (≈ 18.9 µM); IC50 (HT-29): 9.6 µg/mL (≈ 23.3 µM)

**Q.** With COC1=Cc2ccnc3c2C1=C(OC)NC=C3 [AAPTOSINE] as the molecule, how does the IC50 (A549) read?
**A.** > 50 µg/mL

**Q.** And the IC50 (HT-29)?
**A.** > 50 µg/mL

**Q.** Which IC50 (A549) does the source give for COc1cc2c3c(ccnc3c1OC)NCC2 [DIHYDROAAPTAMINE] here?
**A.** 23 µg/mL (≈ 99.9 µM)

**Q.** What about the IC50 (P388) of the same molecule?
**A.** 1.8 µg/mL (≈ 7.82 µM)

**Q.** And the IC50 [1]?
**A.** 22 µg/mL (≈ 95.5 µM)

**Q.** And the IC50 (HT-29)?
**A.** 47 µg/mL (≈ 204 µM)

**Q.** Which results are given for CCCCCCCCC(=O)Oc1c(OC)cc2ccnc3c2c1N(C)C=C3?
**A.** IC50 (A549): 12 µg/mL (≈ 32.6 µM); IC50 (P388): 0.04 µg/mL (≈ 0.109 µM); IC50 [1]: 33 µg/mL (≈ 89.6 µM); IC50 (HT-29): 3 µg/mL (≈ 8.14 µM)

**Q.** With CCCCCCCCCCCCCCCCCC(=O)Oc1c(OC)cc2ccnc3c2c1N(C)C=C3 as the molecule, how does the IC50 (A549) read?
**A.** > 50 µg/mL

**Q.** And the IC50 (P388)?
**A.** 1.1 µg/mL (≈ 2.22 µM)

**Q.** What about the IC50 [1] of the same molecule?
**A.** > 50 µg/mL

**Q.** And the IC50 (HT-29)?
**A.** 21 µg/mL (≈ 42.4 µM)

**Q.** What does the source list for COc1cc2ccnc3c2c(c1O)N(C)C=C3 [ISOAAPTAMINE]?
**A.** IC50 (A549): 0.3 µg/mL (≈ 1.31 µM); IC50 (P388): 0.04 µg/mL (≈ 0.175 µM); IC50 [1]: 0.4 µg/mL (≈ 1.75 µM); IC50 (HT-29): 0.4 µg/mL (≈ 1.75 µM)

**Q.** For CCCCCCCCCC(=O)Oc1c(OC)cc2ccnc3c2c1N(C)C=C3, which IC50 (A549) is on record?
**A.** 6.1 µg/mL (≈ 15.9 µM)

**Q.** And the IC50 (P388)?
**A.** 0.03 µg/mL (≈ 0.0784 µM)

**Q.** What about the IC50 [1] of the same molecule?
**A.** 20 µg/mL (≈ 52.3 µM)

**Q.** And the IC50 (HT-29)?
**A.** 2.5 µg/mL (≈ 6.54 µM)

**Q.** Which results are given for CCCCCCCC(=O)Oc1c(OC)cc2ccnc3c2c1N(C)C=C3?
**A.** IC50 (A549): 14 µg/mL (≈ 39.5 µM); IC50 (P388): 1.5 µg/mL (≈ 4.23 µM); IC50 [1]: 15 µg/mL (≈ 42.3 µM); IC50 (HT-29): 12 µg/mL (≈ 33.9 µM)

**Q.** For CCCCCCCCCCCC(=O)Oc1c(OC)cc2ccnc3c2c1N(C)C=C3, which IC50 (A549) is on record?
**A.** 3.7 µg/mL (≈ 9.01 µM)

**Q.** And the IC50 (P388)?
**A.** 0.03 µg/mL (≈ 0.0731 µM)

**Q.** What about the IC50 [1] of the same molecule?
**A.** 20 µg/mL (≈ 48.7 µM)

**Q.** And the IC50 (HT-29)?
**A.** 2.5 µg/mL (≈ 6.09 µM)

**Q.** With COc1cc2ccnc3c2c(c1OC(C)=O)N(C)C=C3 as the molecule, how does the IC50 (A549) read?
**A.** > 50 µg/mL

**Q.** And the IC50 (P388)?
**A.** 4.2 µg/mL (≈ 15.5 µM)

**Q.** What about the IC50 [1] of the same molecule?
**A.** > 50 µg/mL

**Q.** And the IC50 (HT-29)?
**A.** > 50 µg/mL

**Q.** With CCCCCC(=O)Oc1c(OC)cc2ccnc3c2c1N(C)C=C3 as the molecule, how does the IC50 (A549) read?
**A.** 13 µg/mL (≈ 39.8 µM)

**Q.** And the IC50 (P388)?
**A.** 0.7 µg/mL (≈ 2.14 µM)

**Q.** And the IC50 [1]?
**A.** 33 µg/mL (≈ 101 µM)

**Q.** What about the IC50 (HT-29) of the same molecule?
**A.** 12 µg/mL (≈ 36.8 µM)

**Q.** For COc1cc2ccnc3c2c(c1OC)NC=C3 [AAPTAMINE], which IC50 (A549) is on record?
**A.** 2.8 µg/mL (≈ 12.3 µM)

**Q.** And the IC50 (P388)?
**A.** 0.6 µg/mL (≈ 2.63 µM)

**Q.** And the IC50 [1]?
**A.** 3.9 µg/mL (≈ 17.1 µM)

**Q.** And the IC50 (HT-29)?
**A.** 6.9 µg/mL (≈ 30.2 µM)

**Q.** For CCC(=O)Oc1c(OC)cc2ccnc3c2c1N(C)C=C3, which IC50 (A549) is on record?
**A.** 18 µg/mL (≈ 63.3 µM)

**Q.** And the IC50 (P388)?
**A.** 1.4 µg/mL (≈ 4.92 µM)

**Q.** And the IC50 [1]?
**A.** 28 µg/mL (≈ 98.5 µM)

**Q.** What about the IC50 (HT-29) of the same molecule?
**A.** 13 µg/mL (≈ 45.7 µM)

**Q.** With CCCCCCC(=O)Oc1c(OC)cc2ccnc3c2c1N(C)C=C3 as the molecule, how does the IC50 (A549) read?
**A.** 11 µg/mL (≈ 32.3 µM)

**Q.** And the IC50 (P388)?
**A.** 0.7 µg/mL (≈ 2.06 µM)

**Q.** What about the IC50 [1] of the same molecule?
**A.** 38 µg/mL (≈ 112 µM)

**Q.** And the IC50 (HT-29)?
**A.** 13 µg/mL (≈ 38.2 µM)

**Q.** For CCCCCCCCCCCCCCCCCC(=O)N1CCc2cc(OC)c(OC)c3nccc1c23, which IC50 (A549) is on record?
**A.** > 50 µg/mL

**Q.** What about the IC50 (P388) of the same molecule?
**A.** 2.7 µg/mL (≈ 5.44 µM)

**Q.** What about the IC50 [1] of the same molecule?
**A.** 20 µg/mL (≈ 40.3 µM)

**Q.** And the IC50 (HT-29)?
**A.** > 50 µg/mL

**Q.** Which results are given for CCCCCC(=O)N1CCc2cc(OC)c(OC)c3nccc1c23?
**A.** IC50 (A549): > 50 µg/mL; IC50 (P388): 3.7 µg/mL (≈ 11.3 µM); IC50 [1]: > 50 µg/mL; IC50 (HT-29): > 50 µg/mL

**Q.** With COc1cc2c3c(ccnc3c1OC)N(C(C)=O)CC2 as the molecule, how does the IC50 (A549) read?
**A.** 20 µg/mL (≈ 73.4 µM)

**Q.** What about the IC50 (P388) of the same molecule?
**A.** 2.6 µg/mL (≈ 9.55 µM)

**Q.** And the IC50 [1]?
**A.** 32 µg/mL (≈ 118 µM)

**Q.** And the IC50 (HT-29)?
**A.** 17 µg/mL (≈ 62.4 µM)

**Q.** Which results are given for CCCCC(=O)Oc1c(OC)cc2ccnc3c2c1N(C)C=C3?
**A.** IC50 (A549): 13 µg/mL (≈ 41.6 µM); IC50 (P388): 1.8 µg/mL (≈ 5.76 µM); IC50 [1]: 35 µg/mL (≈ 112 µM); IC50 (HT-29): 9 µg/mL (≈ 28.8 µM)

**Q.** With CCCCCCCCCCCCCC(=O)Oc1c(OC)cc2ccnc3c2c1N(C)C=C3 as the molecule, how does the IC50 (A549) read?
**A.** 5.6 µg/mL (≈ 12.8 µM)

**Q.** And the IC50 (P388)?
**A.** 0.3 µg/mL (≈ 0.684 µM)

**Q.** And the IC50 [1]?
**A.** 3.3 µg/mL (≈ 7.52 µM)

**Q.** And the IC50 (HT-29)?
**A.** 2.7 µg/mL (≈ 6.16 µM)

**Q.** For COC1=Cc2ccnc3ccnc(c23)C1=O [DEMETHYLOXY-AAPTAMINE], which IC50 (A549) is on record?
**A.** 0.3 µg/mL (≈ 1.41 µM)

**Q.** What about the IC50 (P388) of the same molecule?
**A.** 0.01 µg/mL (≈ 0.0471 µM)

**Q.** What about the IC50 [1] of the same molecule?
**A.** 0.1 µg/mL (≈ 0.471 µM)

**Q.** Which IC50 (A549) does the source give for CCCCCCCCCCCCCCCC(=O)Oc1c(OC)cc2ccnc3c2c1N(C)C=C3 here?
**A.** 7.3 µg/mL (≈ 15.6 µM)

**Q.** And the IC50 (P388)?
**A.** 0.1 µg/mL (≈ 0.214 µM)

**Q.** What about the IC50 [1] of the same molecule?
**A.** 8 µg/mL (≈ 17.1 µM)

**Q.** What about the IC50 (HT-29) of the same molecule?
**A.** 9 µg/mL (≈ 19.3 µM)
